Among the data in article PMC11314561, “Design and Synthesis of Novel Aminoindazole-pyrrolo[2,3-b]pyridine Inhibitors of IKKα That Selectively Perturb Cellular Non-Canonical NF-κB Signalling” (Molecules, 2024) are inhibition and solubility values, retold here.

Values after ≈ are worked out from the molar mass of the structure shown.

One series concerns the target Rsk2(h) (Homo sapiens, UniProt P51812). In words: kinase panel. The class given is biochemical. An outline of the steps:
(§1)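 Percentage inhibition was recorded for each compound against a broad kinase panel of 231 enzymes. Because of its close structural resemblance to another analogue, one compound was screened against 98 chosen kinases.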

For the next series, the target named is PKG1β(h) (Homo sapiens, UniProt Q13976). As to the kind of experiment: kinase panel. It counts as biochemical. An outline of the steps:
as §1

The next series has as its target Rse(h) (Homo sapiens, UniProt Q06418). As to the kind of experiment: kinase panel. The class given is biochemical. In a few lines:
as §1

The next series addresses MLK1(h) (Homo sapiens, UniProt P80192). As to the kind of experiment: kinase panel. It counts as biochemical. An outline of the steps:
as §1

For another series, the target named is FAK(h) (Homo sapiens, UniProt Q05397). In words: kinase panel. The class given is biochemical. In a few lines: as §1
FAK(h), sequence (Q05397 whole entry): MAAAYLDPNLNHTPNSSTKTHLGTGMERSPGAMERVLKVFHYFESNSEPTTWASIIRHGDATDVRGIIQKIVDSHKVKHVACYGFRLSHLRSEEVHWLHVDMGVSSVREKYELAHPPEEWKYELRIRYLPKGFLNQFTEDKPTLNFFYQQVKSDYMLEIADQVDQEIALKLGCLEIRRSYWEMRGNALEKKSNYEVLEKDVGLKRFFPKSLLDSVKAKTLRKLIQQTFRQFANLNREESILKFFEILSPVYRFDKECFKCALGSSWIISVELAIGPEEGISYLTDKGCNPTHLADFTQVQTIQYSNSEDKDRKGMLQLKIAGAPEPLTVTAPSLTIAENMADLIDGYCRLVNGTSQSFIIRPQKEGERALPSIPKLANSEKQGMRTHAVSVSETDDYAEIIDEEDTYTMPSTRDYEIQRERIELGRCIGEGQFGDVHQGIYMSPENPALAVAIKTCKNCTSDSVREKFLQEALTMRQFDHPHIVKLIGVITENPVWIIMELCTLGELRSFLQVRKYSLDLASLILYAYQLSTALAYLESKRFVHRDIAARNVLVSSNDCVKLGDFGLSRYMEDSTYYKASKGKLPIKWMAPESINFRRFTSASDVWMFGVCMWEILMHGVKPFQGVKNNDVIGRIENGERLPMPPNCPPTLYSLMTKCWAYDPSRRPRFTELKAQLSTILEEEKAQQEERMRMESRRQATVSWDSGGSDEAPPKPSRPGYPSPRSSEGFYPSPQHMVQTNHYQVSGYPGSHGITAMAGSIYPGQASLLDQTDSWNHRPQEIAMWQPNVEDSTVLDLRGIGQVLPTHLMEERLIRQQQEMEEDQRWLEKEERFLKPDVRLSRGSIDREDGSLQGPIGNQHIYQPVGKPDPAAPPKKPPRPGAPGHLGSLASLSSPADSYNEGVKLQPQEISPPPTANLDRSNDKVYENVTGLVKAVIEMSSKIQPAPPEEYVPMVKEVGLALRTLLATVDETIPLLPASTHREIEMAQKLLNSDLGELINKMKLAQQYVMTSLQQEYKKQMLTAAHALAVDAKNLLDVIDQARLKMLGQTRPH
In a further series the target is STK33(h) (Homo sapiens, UniProt Q9BYT3). In words: kinase panel. The class given is biochemical. In a few lines:
as §1

The next series deals with Txk(h) (Homo sapiens, UniProt P42681). As to the kind of experiment: kinase panel. It counts as biochemical. In a few lines: as §1
In the next series the target is PKCγ(h) (Homo sapiens, UniProt P05129). In words: kinase panel. The class given is biochemical. In a few lines:
as §1

The next series addresses Pim-2(h) (Homo sapiens, UniProt Q9P1W9). In words: kinase panel. It counts as biochemical. An outline of the steps: as §1
In the next series the target is cKit(h) (Homo sapiens, UniProt P10721). In words: kinase panel. It counts as biochemical. An outline of the steps:
as §1

Another series deals with PKCδ(h) (Homo sapiens, UniProt Q05655). As to the kind of experiment: kinase panel. The class given is biochemical. An outline of the steps:
as §1

The target in a further series is IGF-1R(h) (Homo sapiens, UniProt P08069). In words: kinase panel. It counts as biochemical. In a few lines: as §1
The target of another series is Rsk4(h) (Homo sapiens, UniProt Q9UK32). As to the kind of experiment: kinase panel. The class given is biochemical. An outline of the steps: as §1
Rsk4(h), sequence (Q9UK32 whole entry): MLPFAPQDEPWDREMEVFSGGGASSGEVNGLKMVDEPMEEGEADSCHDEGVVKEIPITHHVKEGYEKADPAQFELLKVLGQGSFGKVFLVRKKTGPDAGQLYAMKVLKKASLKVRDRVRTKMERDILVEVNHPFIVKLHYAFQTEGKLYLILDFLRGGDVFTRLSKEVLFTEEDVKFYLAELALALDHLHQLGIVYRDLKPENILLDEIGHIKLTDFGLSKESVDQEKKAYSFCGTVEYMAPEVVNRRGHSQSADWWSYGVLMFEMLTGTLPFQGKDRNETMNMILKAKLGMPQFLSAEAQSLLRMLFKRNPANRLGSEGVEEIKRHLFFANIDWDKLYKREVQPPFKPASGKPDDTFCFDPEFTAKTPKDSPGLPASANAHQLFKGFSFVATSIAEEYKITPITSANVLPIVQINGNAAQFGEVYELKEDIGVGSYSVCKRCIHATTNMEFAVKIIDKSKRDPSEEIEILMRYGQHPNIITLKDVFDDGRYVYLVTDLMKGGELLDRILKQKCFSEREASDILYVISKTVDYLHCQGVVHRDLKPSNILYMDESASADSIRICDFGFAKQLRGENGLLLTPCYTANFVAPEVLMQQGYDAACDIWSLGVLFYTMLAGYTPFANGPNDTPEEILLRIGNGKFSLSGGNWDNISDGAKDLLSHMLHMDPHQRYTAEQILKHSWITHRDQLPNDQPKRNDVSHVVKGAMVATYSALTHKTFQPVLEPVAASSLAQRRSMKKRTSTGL
The target of a further series is EphB2(h) (Homo sapiens, UniProt P29323). As to the kind of experiment: kinase panel. The class given is biochemical. In a few lines:
as §1

The target in the next series is PKBβ(h) (Homo sapiens, UniProt P31751). As to the kind of experiment: kinase panel. It counts as biochemical. In a few lines: as §1
The target of the next series is Bmx(h) (Homo sapiens, UniProt P51813). As to the kind of experiment: kinase panel. The class given is biochemical. An outline of the steps:
as §1

A further series concerns the target Ros(h) (Homo sapiens, UniProt P08922). In words: kinase panel. The class given is biochemical. In a few lines:
as §1

The target of another series is WNK3(h) (Homo sapiens, UniProt Q9BYP7). In words: kinase panel. It counts as biochemical. In a few lines: as §1
Another series deals with EphA5(h) (Homo sapiens, UniProt P54756). As to the kind of experiment: kinase panel. The class given is biochemical. An outline of the steps:
as §1

The target in the next series is GRK5(h) (Homo sapiens, UniProt P34947). In words: kinase panel. It counts as biochemical. In a few lines: as §1
For another series, the target named is SAPK2a(h) (Homo sapiens, UniProt Q16539). As to the kind of experiment: kinase panel. The class given is biochemical. In a few lines: as §1
Another series deals with ULK3(h) (Homo sapiens, UniProt Q6PHR2). As to the kind of experiment: kinase panel. The class given is biochemical. An outline of the steps: as §1
ULK3(h), sequence (Q6PHR2 whole entry): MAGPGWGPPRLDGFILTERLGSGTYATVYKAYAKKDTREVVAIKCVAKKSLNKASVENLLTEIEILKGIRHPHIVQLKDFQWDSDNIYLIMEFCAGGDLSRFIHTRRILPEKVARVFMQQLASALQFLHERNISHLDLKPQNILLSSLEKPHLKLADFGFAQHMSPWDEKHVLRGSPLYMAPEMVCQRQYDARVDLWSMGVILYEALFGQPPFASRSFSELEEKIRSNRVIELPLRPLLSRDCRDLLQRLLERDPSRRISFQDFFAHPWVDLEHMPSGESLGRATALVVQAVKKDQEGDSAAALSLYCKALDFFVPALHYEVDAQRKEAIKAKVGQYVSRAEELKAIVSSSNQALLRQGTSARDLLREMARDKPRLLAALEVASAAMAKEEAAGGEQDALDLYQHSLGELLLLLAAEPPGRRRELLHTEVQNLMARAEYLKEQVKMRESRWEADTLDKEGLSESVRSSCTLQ
In a further series the target is TLK2(h) (Homo sapiens, UniProt Q86UE8). As to the kind of experiment: kinase panel. It counts as biochemical. In a few lines:
as §1

A further series has as its target TAO3(h) (Homo sapiens, UniProt Q9H2K8). In words: kinase panel. It counts as biochemical. In a few lines: as §1
In a further series the target is p70S6K(h) (Homo sapiens, UniProt P23443). As to the kind of experiment: kinase panel. The class given is biochemical. In a few lines:
as §1

A further series addresses CK1γ3(h) (Homo sapiens, UniProt Q9Y6M4). As to the kind of experiment: kinase panel. The class given is biochemical. An outline of the steps:
as §1

Another series has as its target DCAMKL2(h) (Homo sapiens, UniProt Q8N568). As to the kind of experiment: kinase panel. The class given is biochemical. In a few lines: as §1
A further series addresses MST1(h) (Homo sapiens, UniProt Q13043). In words: kinase panel. The class given is biochemical. An outline of the steps: as §1
The next series concerns the target TGFBR1(h) (Homo sapiens, UniProt P36897). As to the kind of experiment: kinase panel. It counts as biochemical. In a few lines: as §1
The target in another series is PKCι(h) (Homo sapiens, UniProt P41743). In words: kinase panel. It counts as biochemical. In a few lines: as §1
The target of another series is PKBγ(h) (Homo sapiens, UniProt Q9Y243). As to the kind of experiment: kinase panel. The class given is biochemical. An outline of the steps: as §1
PKBγ(h), sequence (Q9Y243 whole entry): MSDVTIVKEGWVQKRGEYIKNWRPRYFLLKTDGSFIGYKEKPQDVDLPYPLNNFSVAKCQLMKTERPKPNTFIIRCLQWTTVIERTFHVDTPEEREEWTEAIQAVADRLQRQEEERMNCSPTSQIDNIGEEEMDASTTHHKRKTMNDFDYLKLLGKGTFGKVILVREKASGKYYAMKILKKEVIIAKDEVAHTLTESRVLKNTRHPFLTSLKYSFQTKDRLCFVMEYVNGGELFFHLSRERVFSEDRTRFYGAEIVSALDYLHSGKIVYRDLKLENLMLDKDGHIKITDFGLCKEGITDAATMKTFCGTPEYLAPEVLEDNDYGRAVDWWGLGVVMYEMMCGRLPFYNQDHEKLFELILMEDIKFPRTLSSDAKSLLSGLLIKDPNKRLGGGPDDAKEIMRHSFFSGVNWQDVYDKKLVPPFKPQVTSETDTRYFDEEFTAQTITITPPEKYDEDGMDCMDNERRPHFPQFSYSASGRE
Another series deals with MAPK2(h) (Homo sapiens, UniProt P28482). In words: kinase panel. It counts as biochemical. An outline of the steps:
as §1

The nature of the next series: Turbidimetric solubility. To be noted: pH 7.4, aqueous buffer, kinetic from dmso stock, 0.01 M phosphate-buffered saline pH7.4. It counts as physicochemical. The procedure:
Pharmacokinetic studies were contracted to Sygnature Discovery Limited. Turbidimetric Solubility was determined by diluting compound solutions (1 μM, 3 μM, 10 μM, 30 μM, 100 μM) prepared in DMSO into 0.01 M phosphate-buffered saline pH7.4. Turbidimetry was used as the endpoint by measuring absorbance at 620 nm.

p70S6K(h), sequence (P23443 whole entry): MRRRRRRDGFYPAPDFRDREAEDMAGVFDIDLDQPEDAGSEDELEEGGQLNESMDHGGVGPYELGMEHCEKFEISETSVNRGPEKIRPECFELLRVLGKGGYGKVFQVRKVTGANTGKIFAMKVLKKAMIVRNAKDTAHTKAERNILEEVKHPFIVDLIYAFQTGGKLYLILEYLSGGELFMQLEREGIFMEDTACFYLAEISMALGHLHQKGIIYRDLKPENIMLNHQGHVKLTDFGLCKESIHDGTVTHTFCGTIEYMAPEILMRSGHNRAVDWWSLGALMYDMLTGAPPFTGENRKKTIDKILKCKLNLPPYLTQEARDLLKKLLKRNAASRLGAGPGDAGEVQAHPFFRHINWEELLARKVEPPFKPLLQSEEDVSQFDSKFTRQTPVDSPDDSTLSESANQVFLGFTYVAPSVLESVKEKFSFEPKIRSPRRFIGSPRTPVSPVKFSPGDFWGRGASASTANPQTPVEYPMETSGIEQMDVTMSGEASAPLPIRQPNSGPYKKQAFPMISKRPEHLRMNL
TAO3(h), sequence (Q9H2K8 whole entry): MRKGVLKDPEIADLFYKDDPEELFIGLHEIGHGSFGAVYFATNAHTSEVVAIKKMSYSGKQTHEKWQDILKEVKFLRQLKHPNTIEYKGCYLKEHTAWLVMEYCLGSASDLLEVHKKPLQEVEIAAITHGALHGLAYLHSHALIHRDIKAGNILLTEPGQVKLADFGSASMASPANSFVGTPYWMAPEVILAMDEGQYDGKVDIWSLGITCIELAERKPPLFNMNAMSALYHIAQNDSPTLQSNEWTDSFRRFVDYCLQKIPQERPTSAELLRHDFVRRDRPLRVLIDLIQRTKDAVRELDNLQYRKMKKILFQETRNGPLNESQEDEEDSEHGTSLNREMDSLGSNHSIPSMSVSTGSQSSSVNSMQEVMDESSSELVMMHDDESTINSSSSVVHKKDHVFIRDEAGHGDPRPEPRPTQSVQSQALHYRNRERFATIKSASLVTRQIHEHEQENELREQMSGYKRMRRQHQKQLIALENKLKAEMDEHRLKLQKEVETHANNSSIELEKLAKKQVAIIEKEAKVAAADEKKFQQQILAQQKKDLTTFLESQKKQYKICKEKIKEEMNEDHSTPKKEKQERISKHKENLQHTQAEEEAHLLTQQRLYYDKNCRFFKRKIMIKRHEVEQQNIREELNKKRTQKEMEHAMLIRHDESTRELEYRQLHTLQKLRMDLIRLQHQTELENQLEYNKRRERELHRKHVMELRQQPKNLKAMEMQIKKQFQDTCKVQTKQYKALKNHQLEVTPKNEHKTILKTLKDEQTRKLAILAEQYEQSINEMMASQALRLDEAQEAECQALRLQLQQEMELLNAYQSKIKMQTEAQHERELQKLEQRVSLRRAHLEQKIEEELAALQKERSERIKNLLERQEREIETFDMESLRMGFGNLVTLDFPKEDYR
Pim-2(h), sequence (Q9P1W9 whole entry): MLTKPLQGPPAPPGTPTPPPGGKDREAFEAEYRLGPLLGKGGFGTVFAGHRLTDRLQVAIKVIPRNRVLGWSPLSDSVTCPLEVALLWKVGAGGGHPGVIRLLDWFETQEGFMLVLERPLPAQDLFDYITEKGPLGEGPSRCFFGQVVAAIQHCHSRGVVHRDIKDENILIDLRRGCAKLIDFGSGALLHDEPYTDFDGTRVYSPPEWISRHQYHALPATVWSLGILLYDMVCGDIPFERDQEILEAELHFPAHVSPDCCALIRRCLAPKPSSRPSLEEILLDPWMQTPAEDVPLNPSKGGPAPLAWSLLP
MAPK2(h), sequence (P28482 whole entry): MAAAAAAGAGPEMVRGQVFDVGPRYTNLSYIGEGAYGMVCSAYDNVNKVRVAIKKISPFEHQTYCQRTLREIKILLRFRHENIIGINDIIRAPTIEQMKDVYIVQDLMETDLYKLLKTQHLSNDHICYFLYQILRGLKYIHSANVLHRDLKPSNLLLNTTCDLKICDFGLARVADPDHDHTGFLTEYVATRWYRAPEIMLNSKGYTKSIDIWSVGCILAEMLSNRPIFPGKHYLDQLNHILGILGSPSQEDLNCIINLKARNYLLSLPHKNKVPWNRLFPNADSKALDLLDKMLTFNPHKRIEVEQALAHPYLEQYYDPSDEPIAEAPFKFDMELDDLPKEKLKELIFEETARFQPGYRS

Regarding `Nc1n[nH]c2ccc(-c3ccnc4[nH]c(-c5ccccc5)cc34)cc12` [Compound 4], the inhibition (commonly the relative decrease from the control value, in per cent) at 1 µM against Rsk2(h) was 28%; against PKG1β(h), 13%; on Rse(h), 30%; against MLK1(h), 79%; against FAK(h), 35%; at STK33(h), 38%. The inhibition at 1 µM is 43% against Txk(h); -5% against PKCγ(h); 25% against Pim-2(h); 51% against cKit(h); 16% at PKCδ(h); 64% on IGF-1R(h). Further, the inhibition at 1 µM against Rsk4(h) turned out to be 17%; on EphB2(h), 12%; against PKBβ(h), 3%; against Bmx(h) it was 55%; against Ros(h) it was 16%; against WNK3(h), 20%. In addition, the inhibition at 1 µM at EphA5(h) is 19%; against GRK5(h), 5%; against SAPK2a(h) it was -16%; on ULK3(h) it was 48%; on TLK2(h), -8%; on TAO3(h), 36%. For the same compound, the inhibition at 1 µM against p70S6K(h) was determined as 33%; against CK1γ3(h) it was 29%; against DCAMKL2(h), 33%; at MST1(h), 33%; against TGFBR1(h), 28%; on PKCι(h), 3%. Also, the inhibition at 1 µM worked out at 12% against PKBγ(h) and 29% against MAPK2(h).

As to `Nc1n[nH]c2ccc(-c3ccnc4[nH]c(-c5cccc(OCc6ccccc6)c5)cc34)cc12` [Compound 5r [SU1261]], in the series “Turbidimetric solubility”, the solubility (usually the dissolved amount per volume that the medium holds) was less than 1 µM. Besides, the inhibition at 1 µM came to 0% on Rsk2(h); 1% on PKG1β(h); 10% on Rse(h); 56% on MLK1(h); 8% against FAK(h); 25% on STK33(h). The inhibition at 1 µM is 27% on Txk(h); -2% against PKCγ(h); 5% on Pim-2(h); 9% against cKit(h); 6% against PKCδ(h); 14% at IGF-1R(h). For the same compound, the inhibition at 1 µM on Rsk4(h) is 4%; at EphB2(h), -8%; against PKBβ(h), -5%; at Bmx(h), 17%; on Ros(h), 11%; on WNK3(h), 17%. Also, the inhibition at 1 µM against EphA5(h) worked out at 8%; on GRK5(h), 3%; at SAPK2a(h), 0%; against ULK3(h), 14%; at TLK2(h) it was 0%; on TAO3(h), 4%. Moreover, the inhibition at 1 µM against p70S6K(h) is -15%; at CK1γ3(h), 19%; on DCAMKL2(h), 6%; against MST1(h), 4%; at TGFBR1(h) it was 21%; against PKCι(h), -10%. Also, the inhibition at 1 µM was 0% at PKBγ(h) and -1% against MAPK2(h).

In “Turbidimetric solubility”, `Nc1n[nH]c2ccc(-c3ccnc4[nH]c(-c5ccnc(OCc6ccccc6)c5)cc34)cc12` [Compound 6g [SU1349]] yielded a solubility of 20 µM (≈ 8.65 µg/mL).
